The values below come from patent US20260159474A1, “Aminoindane Compounds and Compositions and Methods of Their Therapeutic Use” (Solvonis Therapeutics Ireland Holdings Limited, priority 2021, published 2026).

Like-named read-outs stand apart in the source and are kept apart here.

Holding throughout (assay): CYP450 inhibition, fluorescent probe substrate
What all share (type): in vitro ADME

One data set deals with T1, CYP2C19 (Homo sapiens, UniProt P33261).
T1 construct: host or cells: recombinant microsomes
Here is the method: (§1) Methods: Recombinant human CYP450 isoenzymes were used to metabolize pro-fluorescent probe substrates to fluorescent products. IC50 values determined from the effect of test compounds on the metabolism of these probe substrates were then used to determine inhibitory potency against CYP450 isoforms. The chemical reagents included:
(§2) The test system was based on a three-step procedure with a “mix and read” format, where reaction and reading were performed at 37° C. The assays described herein measure in vitro inhibitory effects (pIC50) of compounds on the human P450 isoforms (1A2, 2B6, 2C8, 2C9, 2C19, 2D6, 3A4) expressed in recombinant microsomes. Pro-fluorescent probe substrates were metabolized to fluorescent products by the enzymes. Fluorescence was measured in kinetic mode (1 read/minutes for 10 minutes), and the fluorescence rate was calculated.
(§3) Inhibition of the fluorescent signal resulting from P450 activation indicated inhibitory activity and facilitated calculation of the compound pIC50. A quality check was included in each compound plate, wherein the signal window was monitored by performing Z′ calculations ([…] ) and the antagonist potency of internal standards was within the pIC50±2SD range. Concentration response curves (CRCs) of compounds were run on two different test occasions (n 2) by preparing serial dilutions from the same compound stock solution.
(§4) To prepare the compound plate, test compounds serial dilutions 1 to 3 were performed from a 10 mM stock solution in DMSO by Biomek FX to generate 10 point CRC with the highest concentrations in columns 3 and 13.
(§5) 100% DMSO was placed in columns 1 and 2 and used for assay low controls. CYP inhibitor (10 mM miconazole solution in DMSO) was placed in columns 23 and 24 and served as an assay high controls. 1 μL copy plates were then stamped into V-bottom drug plates at a concentration that is 200 fold the final assay concentration. The copy plates were diluted prior to the experiment with assay buffer to reach 4 times the final assay concentration (2% w/v DMSO).
(§6) A reference compound (e.g., miconazole) was included in each compound plate in row A, column 3 and 13. The reference compound was diluted and stamped together with test compounds. The final concentrations of the 10 point CRCs of test compounds in the assay plate were 5.00E-05; 1.67E-05; 5.56E-06; 1.85E-06; 6.17E-07; 2.06E-07; 6.86E-08; 2.29E-08; 7.62E-09 and 2.54E-09, respectively. All solutions were prepared immediately before the assay.
(§7) Microsomes were added to the buffer prior to the substrate addition. The solution was carefully mixed without vortexing. 30 μL/well of the mixture was then transferred to the assay plate (384-well black plate) using a 16-channel pipette. For each P450 isoformn, a separate plate was prepared and labeled with a barcode. For fluorescence measurement, 10 μL/well of the test compounds were transferred from the compound plate to the assay plate using Biomek FX and the appropriate protocol. The assay plate was then incubated at 37° C. for 10 minutes on a shaker to allow for the interaction between compounds and enzymes.
(§8) 10 μL/well of the cofactor was then added to the assay plate using the Multidrop before placing the assay plate in the plate reader EnVision to measure fluorescence. The overall final DMSO concentration for the assay was 0.5%. Plates were read every minute for 10 minutes, according to a P450 isoform specific protocol, as shown below.
(§9) Regarding data analysis, inhibition is expressed as a percentage. […] Curve fitting and pIC50 estimations are carried out using a four-parameter logistic model in Morphit.

The target of another data set is T2, CYP1A2 (Homo sapiens, UniProt P05177).
T2 construct: host or cells: recombinant microsomes
T2 sequence (P05177 1-516): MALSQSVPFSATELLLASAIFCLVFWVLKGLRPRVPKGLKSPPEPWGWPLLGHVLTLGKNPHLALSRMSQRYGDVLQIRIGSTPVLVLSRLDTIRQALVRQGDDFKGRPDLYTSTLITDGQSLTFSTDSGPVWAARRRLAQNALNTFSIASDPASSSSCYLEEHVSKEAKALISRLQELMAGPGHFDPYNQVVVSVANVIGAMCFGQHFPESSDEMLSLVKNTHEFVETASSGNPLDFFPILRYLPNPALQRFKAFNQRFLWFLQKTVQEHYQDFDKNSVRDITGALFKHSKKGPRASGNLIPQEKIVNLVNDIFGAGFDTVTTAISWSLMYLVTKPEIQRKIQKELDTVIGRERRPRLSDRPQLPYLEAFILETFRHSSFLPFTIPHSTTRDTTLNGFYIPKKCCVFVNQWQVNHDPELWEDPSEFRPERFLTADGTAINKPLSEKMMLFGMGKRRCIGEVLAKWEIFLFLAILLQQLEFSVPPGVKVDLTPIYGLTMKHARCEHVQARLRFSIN
Here is the method:
as §1, §2, §3, §4, §5, §6, §7, §8, §9

Another data set has as its target T3, CYP2C9 (Homo sapiens, UniProt P11712).
T3 construct: host or cells: recombinant microsomes
Here is the method: as §1, §2, §3, §4, §5, §6, §7, §8, §9

Where [1] appears, read: recombinant human isoenzyme, n=2, read-out: Inhibition of CYP2C19, IC50.
Setting [2] is: recombinant human isoenzyme, n=2.
Setting [3] is: recombinant human isoenzyme, n=2, read-out: Inhibition of CYP1A2, IC50.
[4] abbreviates: recombinant human isoenzyme, n=2, read-out: Inhibition of CYP2C9, IC50.

T3 sequence (P11712 whole entry): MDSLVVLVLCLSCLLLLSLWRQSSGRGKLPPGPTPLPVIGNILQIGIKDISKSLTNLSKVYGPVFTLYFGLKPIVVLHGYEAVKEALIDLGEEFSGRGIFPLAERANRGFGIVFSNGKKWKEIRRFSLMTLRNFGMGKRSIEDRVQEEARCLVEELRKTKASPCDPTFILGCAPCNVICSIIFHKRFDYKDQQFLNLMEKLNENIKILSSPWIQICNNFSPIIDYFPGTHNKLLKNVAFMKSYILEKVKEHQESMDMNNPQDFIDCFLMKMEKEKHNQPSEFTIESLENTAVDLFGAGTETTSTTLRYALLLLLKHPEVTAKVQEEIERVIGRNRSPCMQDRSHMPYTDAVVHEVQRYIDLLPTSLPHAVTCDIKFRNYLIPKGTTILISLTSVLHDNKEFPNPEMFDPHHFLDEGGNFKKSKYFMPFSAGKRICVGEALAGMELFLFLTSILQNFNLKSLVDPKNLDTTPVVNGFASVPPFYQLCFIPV
T1 sequence (P33261 whole entry): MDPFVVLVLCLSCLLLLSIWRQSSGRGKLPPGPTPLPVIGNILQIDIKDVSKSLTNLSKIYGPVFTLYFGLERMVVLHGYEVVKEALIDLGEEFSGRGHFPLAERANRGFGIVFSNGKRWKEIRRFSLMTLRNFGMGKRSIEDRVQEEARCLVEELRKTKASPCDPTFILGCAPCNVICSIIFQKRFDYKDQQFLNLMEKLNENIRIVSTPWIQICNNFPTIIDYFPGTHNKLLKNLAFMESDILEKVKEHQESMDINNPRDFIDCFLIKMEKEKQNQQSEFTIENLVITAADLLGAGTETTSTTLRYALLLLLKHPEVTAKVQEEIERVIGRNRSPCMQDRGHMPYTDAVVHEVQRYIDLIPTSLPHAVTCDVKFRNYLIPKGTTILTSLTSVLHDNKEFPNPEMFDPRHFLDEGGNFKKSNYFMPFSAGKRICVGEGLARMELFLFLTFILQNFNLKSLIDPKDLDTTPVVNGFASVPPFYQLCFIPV

By IC50 is commonly meant the midpoint of a concentration-inhibition curve. On to `COc1ccc2c(c1)CC(N)C2` (centres unmarked) [MEAI, 5-methoxy-2-aminoindane], for which the IC50 on CYP2C19, against CYP1A2 and on CYP2C9 was over 50 µM in each case.
In the case of `COC(=O)COc1ccc2c(c1)CC(N)C2` (centres unmarked) [CMP-402], the values for the IC50 at CYP2C19 (setting [1]), at CYP1A2 (setting [3]) and on CYP2C9 (setting [4]) were over 50 µM, 1.07 µM and over 50 µM, respectively. Moreover, the “Inhibition of CYP1A2, IC50” value on CYP1A2 (setting [2]) is on record as “displayed inhibitory activity at CYP1A2”.
For the compound `CNC(C)Cc1ccc2c(c1)OCO2` (centres unmarked) [MDMA], the IC50 on CYP2C19 (setting [1]), at CYP1A2 (setting [3]) and on CYP2C9 (setting [4]) was over 50 µM in each case.
For the compound `COC(=O)c1cc2c(cc1OC)CC(N)C2` (centres unmarked) [CMP-401], the half-inhibitory concentration (IC50) was over 50 µM at CYP2C19 (setting [1]), 1.21 µM on CYP1A2 (setting [3]) and over 50 µM at CYP2C9 (setting [4]). For the same compound, the “Inhibition of CYP1A2, IC50” value at CYP1A2 (setting [2]) is listed as “displayed inhibitory activity at CYP1A2”.
Turning to `COc1cc2c(cc1C)CC(N)C2` (centres unmarked) [MMAI, 5-methoxy-6-methyl-2-aminoindane], the results for the IC50 against CYP2C19, against CYP1A2 and at CYP2C9 were over 50 µM, 2.11 µM and 35.7 µM, respectively. The “Inhibition of CYP1A2, IC50” value on CYP1A2 (setting [2]) was “displayed inhibitory activity at CYP1A2”. In addition, on CYP2C9 (setting [2]), the “Inhibition of CYP2C9, IC50” value is “found to inhibit CYP2C9”.
Consider `COC(=O)c1ccc2c(c1)CC(N)C2` (centres unmarked) [CMP-405, 2-aminoindane-5-methylcarboxylate], for which the half-inhibitory concentration (IC50) on CYP2C19 (setting [1]) was over 50 µM; on CYP1A2 (setting [3]), 0.61 µM; at CYP2C9 (setting [4]) it was over 50 µM. Further, the “Inhibition of CYP1A2, IC50” value at CYP1A2 (setting [2]) was “displayed inhibitory activity at CYP1A2”.
